Measured values from PMC7369637, “Inhibition of Resistance-Refractory P. falciparum Kinase PKG Delivers Prophylactic, Blood Stage, and Transmission-Blocking Antiplasmodial Activity” (Cell Chemical Biology, 2020).

How the values were obtained:
Pf Dd2-B2 ABS parasites = assay: 72-h asexual blood stage (ABS) growth inhibition assay, Dd2-B2; format: cell-based, Plasmodium falciparum; details: Dd2-B2 wild-type, 72 h; read-out: Mean IC50, 72 h ABS activity
Procedure: (§1) Synchronicity was achieved using three rounds of sorbitol treatment on early rings, spaced 48 h apart, followed by magnetic purification of segmented schizonts following the final sorbitol treatment. Parasites were highly synchronous to within a 3 h window of development. Assays were repeated on at least three independent occasions (each with technical duplicates) and statistical significance was assessed using Mann Whitney U tests.

sel. Dd2-B2 TKL3T1268R = assay: 72-h ABS assay, MMV030084-selected line; format: cell-based, Plasmodium falciparum
Procedure: as §1
The resulting MMV030084-resistant parasites were cloned by limiting dilution ([Baker et al., 2017]) to obtain genetically homogenous cultures for further phenotyping and whole-genome sequencing. A second round of […]. […] Drug susceptibility of resistant lines was assessed using a 72 h ABS assay as described above, and a Mann Whitney U test was applied to assess statistically significant differences.

CC(C)(C)CNCC(C)(C)c1nc(-c2ccc(Cl)c(O)c2)c(-c2ccncc2)[nH]1 [TCMDC-140549]
IC50 (Pf Dd2-B2 ABS parasites): 210 nM | IC50 (sel. Dd2-B2 TKL3T1268R): 287 nM
